Laboratory results: ChEMBL document CHEMBL1201862, “PubChem BioAssay data set” (2004)
Active and inactive are the calls of the source.

Assays:
[1] = target: Fructose-bisphosphate aldolase (Mycobacterium tuberculosis, UniProt P9WQA3); test: Fluorescence-based biochemical high throughput dose response assay for inhibitors of the fructose-bisphosphate aldolase (FBA) of M. tuberculosis.; type: functional
[2] = Late stage assay provider results from the probe development effort to identify inhibitors of the Plasmodium falciparum M18 Aspartyl Aminopeptidase (M18AAP): radiolabel-based cell-based dose response assay to identify compounds that inhibit P. falciparum growth in RBCs, Set 2..; type: functional
[3] = target: T1, Mannose-6-phosphate isomerase (Homo sapiens, UniProt P34949); test: MPI inhibition at elevated mannose 6-phosphate – biochemical, fluorescence intensity, high mannose 6-phosphate, primary screen (AID 1220)
T1 sequence (P34949 whole entry): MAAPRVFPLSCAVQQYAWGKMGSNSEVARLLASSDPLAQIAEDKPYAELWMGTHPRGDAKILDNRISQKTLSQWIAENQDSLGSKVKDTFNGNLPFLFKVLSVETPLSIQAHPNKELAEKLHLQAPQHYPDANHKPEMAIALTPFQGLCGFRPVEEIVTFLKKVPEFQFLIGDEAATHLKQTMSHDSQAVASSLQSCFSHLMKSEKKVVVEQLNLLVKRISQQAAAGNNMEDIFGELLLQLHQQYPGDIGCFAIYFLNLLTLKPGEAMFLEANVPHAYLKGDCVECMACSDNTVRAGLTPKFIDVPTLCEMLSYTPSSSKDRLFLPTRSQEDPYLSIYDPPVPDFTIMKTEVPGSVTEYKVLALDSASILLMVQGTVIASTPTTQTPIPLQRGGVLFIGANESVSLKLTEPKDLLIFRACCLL

[4] = target: T1, Mannose-6-phosphate isomerase; test: MPI enzyme activity inhibition – biochemical, fluorescence intensity, coupled assay, primary screen (AID 1209)
[5] = T. cruzi growth inhibition in host cells, dose response, cell-based, plate reader, dry powder, set 2 (AID 652275); type: functional
[6] = target: Vascular endothelial growth factor receptor 2 (Homo sapiens, UniProt P35968); type: functional
Sequence of Vascular endothelial growth factor receptor 2 (P35968 whole entry): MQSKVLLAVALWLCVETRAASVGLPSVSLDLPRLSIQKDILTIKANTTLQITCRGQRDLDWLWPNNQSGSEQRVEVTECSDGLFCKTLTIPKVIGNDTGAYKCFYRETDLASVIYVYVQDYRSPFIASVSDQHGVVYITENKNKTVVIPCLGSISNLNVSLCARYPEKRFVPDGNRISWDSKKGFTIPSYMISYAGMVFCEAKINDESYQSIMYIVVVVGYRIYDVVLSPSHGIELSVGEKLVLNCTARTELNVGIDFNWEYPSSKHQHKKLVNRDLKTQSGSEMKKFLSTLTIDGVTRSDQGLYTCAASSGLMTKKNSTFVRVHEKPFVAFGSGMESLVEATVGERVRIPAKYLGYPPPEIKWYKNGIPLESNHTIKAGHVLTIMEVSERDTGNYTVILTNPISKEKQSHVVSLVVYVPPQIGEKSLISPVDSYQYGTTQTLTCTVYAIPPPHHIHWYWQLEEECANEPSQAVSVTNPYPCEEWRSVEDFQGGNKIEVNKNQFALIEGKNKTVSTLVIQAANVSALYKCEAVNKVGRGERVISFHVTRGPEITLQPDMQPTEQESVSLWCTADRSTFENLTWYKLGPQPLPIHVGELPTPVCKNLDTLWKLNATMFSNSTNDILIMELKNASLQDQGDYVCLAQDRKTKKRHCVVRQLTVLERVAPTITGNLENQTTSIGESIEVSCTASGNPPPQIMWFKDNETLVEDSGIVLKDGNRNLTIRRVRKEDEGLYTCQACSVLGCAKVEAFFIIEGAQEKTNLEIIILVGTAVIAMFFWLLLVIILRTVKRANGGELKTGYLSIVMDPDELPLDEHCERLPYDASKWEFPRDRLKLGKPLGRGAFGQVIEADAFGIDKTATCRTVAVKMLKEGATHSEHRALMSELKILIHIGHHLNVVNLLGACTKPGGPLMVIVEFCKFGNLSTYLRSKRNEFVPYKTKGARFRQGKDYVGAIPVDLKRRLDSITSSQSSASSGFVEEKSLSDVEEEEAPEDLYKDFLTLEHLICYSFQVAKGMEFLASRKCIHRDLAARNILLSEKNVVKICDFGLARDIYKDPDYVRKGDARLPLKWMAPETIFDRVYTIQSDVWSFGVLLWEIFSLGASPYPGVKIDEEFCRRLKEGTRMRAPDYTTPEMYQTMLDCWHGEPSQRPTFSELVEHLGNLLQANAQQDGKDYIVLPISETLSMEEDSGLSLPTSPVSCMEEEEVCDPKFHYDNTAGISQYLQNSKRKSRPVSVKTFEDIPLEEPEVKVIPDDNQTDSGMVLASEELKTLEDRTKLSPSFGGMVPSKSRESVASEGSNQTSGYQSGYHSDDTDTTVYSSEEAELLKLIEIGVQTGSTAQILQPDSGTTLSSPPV

[7] = target: Rho-associated protein kinase 1 (Homo sapiens, UniProt Q13464); type: functional;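 note: measured within a broad kinome-wide panel profiling many kinases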
Sequence of Rho-associated protein kinase 1 (Q13464 whole entry): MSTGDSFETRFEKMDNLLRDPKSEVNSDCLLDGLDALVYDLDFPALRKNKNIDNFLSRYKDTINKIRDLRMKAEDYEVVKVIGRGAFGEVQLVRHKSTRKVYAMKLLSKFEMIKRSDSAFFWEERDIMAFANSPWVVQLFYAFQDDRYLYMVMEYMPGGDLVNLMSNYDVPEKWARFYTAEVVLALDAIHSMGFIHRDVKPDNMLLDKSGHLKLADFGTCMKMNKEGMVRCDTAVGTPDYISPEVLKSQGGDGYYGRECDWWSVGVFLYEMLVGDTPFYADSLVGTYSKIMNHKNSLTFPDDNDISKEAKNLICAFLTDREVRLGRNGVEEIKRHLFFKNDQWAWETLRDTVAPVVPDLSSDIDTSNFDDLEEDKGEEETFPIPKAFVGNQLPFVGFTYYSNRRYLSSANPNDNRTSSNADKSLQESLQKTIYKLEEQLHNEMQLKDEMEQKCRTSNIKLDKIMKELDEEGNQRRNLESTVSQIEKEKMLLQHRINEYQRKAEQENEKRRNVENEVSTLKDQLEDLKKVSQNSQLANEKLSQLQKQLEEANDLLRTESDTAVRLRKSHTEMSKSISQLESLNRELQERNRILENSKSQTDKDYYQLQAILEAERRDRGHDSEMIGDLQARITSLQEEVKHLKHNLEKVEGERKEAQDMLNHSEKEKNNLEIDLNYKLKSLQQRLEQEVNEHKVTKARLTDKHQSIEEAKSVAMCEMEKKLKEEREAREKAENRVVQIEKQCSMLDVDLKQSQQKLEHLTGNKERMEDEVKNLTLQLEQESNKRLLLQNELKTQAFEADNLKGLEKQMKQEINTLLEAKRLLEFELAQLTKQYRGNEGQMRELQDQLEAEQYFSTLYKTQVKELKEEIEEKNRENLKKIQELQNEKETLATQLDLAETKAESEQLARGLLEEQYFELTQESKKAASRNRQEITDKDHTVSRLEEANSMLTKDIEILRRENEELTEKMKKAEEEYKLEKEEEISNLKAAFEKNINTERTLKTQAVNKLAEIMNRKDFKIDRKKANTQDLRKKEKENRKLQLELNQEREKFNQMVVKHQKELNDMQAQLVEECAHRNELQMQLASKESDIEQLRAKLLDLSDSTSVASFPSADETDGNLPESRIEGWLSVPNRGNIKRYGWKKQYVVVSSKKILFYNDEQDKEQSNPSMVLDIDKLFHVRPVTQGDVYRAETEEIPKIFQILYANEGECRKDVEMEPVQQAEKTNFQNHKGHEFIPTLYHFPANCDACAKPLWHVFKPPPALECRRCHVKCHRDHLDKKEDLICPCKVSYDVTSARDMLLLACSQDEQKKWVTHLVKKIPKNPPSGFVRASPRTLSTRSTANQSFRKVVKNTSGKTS

Caspase-8 = Caspase-8 (Homo sapiens, UniProt Q14790); test: inhibitors of purified CASP8 protease – biochemical, Z-IETD-R110 fluorescence, cherry-picked samples, selectivity assay for caspase-6 inhibitor project, dose response (AID 743294)
Sequence of Caspase-8 (Q14790 217-374 limits assumed): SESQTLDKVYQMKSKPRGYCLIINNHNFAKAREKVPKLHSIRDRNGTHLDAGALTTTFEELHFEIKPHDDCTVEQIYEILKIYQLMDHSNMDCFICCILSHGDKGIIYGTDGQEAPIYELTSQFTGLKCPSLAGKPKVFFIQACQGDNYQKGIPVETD
Sequence of Caspase-8 (Q14790 385-479 limits assumed): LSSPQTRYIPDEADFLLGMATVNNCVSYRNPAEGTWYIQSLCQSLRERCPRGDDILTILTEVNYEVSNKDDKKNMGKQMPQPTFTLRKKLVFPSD

Caspase-6 = target: T2, Caspase-6 (Homo sapiens, UniProt P55212); test: inhibition of CASP6 peptide cleavage – biochemical, VEID-R110 fluorescence, cherry-pick, dose response (AID 720632)
T2 sequence (P55212 whole entry): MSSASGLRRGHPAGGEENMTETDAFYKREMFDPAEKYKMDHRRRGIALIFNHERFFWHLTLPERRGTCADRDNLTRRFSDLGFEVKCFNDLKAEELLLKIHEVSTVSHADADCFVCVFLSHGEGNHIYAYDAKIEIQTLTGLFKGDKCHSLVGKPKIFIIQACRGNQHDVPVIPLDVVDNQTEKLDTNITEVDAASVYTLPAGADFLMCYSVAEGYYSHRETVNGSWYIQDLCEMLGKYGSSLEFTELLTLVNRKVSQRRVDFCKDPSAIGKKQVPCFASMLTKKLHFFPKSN

Caspase-7 = target: T3, Caspase-7 (Homo sapiens, UniProt P55210); test: caspase-7 enzyme inhibition, selectivity check – biochemical, DEVD-R110 fluorescence, cherry-pick, selectivity assay for caspase-6 inhibitor project, dose response (AID 743295); type: functional
T3 sequence (P55210 whole entry): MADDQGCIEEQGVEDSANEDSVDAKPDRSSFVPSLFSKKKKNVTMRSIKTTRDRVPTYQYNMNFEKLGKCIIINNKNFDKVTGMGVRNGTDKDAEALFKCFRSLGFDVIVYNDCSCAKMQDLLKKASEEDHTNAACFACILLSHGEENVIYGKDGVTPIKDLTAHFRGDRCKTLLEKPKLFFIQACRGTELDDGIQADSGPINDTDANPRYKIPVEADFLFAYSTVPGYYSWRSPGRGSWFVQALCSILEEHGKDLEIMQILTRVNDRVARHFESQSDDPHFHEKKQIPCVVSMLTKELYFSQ

fMet-Leu-Phe receptor = fMet-Leu-Phe receptor (Homo sapiens, UniProt P21462); test: formyl peptide receptor binders – dose response (AID 519); type: functional
Sequence of fMet-Leu-Phe receptor (P21462 whole entry): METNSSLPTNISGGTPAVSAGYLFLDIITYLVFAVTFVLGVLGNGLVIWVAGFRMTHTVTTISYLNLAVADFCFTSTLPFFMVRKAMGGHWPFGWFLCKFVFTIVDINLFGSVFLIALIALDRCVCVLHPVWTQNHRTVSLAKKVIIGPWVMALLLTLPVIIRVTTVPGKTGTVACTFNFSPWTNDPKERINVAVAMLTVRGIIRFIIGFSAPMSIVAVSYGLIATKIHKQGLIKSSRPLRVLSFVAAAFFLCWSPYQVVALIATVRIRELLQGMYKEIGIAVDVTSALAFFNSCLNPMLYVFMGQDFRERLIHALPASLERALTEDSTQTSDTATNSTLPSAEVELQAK

Estrogen receptor = target: T4, Estrogen receptor (Homo sapiens, UniProt P03372);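 note: potency for inhibiting coactivator peptide recruitment to the receptor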
T4 sequence (P03372 whole entry): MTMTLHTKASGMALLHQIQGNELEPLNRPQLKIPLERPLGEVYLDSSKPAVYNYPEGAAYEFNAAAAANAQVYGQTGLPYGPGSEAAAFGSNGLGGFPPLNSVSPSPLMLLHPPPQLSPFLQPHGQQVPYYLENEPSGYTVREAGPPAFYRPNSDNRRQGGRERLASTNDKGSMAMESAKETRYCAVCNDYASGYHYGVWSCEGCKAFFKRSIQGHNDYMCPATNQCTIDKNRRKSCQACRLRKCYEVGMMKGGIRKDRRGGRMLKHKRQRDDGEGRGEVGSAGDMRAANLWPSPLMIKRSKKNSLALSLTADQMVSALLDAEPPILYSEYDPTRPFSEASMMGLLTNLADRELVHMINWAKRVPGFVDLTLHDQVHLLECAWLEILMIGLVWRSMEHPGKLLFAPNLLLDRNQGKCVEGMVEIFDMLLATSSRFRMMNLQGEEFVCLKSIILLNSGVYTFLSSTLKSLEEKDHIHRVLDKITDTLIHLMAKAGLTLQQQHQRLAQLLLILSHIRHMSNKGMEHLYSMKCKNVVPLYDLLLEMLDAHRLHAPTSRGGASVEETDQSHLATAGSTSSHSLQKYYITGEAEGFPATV

[8] = target: G-protein coupled receptor 55 (Homo sapiens, UniProt Q9Y2T6); test: inhibition of LPI-stimulated GPR55 beta-arrestin translocation – imaging, U2OS, beta-arrestin-GFP, LPI agonist, primary screen (AID 2013); type: functional;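 note: antagonist potency measured as reduced agonist-driven arrestin aggregation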
Sequence of G-protein coupled receptor 55 (Q9Y2T6 whole entry): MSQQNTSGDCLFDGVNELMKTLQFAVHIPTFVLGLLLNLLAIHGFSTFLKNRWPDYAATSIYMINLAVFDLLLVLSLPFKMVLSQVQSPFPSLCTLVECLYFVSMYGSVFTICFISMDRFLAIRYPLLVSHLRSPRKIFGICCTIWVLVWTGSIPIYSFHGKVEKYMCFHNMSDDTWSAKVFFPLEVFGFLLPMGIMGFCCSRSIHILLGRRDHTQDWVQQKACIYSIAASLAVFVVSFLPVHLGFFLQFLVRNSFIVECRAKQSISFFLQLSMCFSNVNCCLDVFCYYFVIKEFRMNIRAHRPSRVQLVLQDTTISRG

[9] = MITF Orthogonal Assay: SK-MEL-5 CTG Assay Measured in Cell-Based System Using Plate Reader - 2084-02_Inhibitor_Dose_DryPowder_Activity_Set7.; type: functional
[10] = MITF: Counter assay: A375 proliferation Measured in Cell-Based System Using Plate Reader - 2084-03_Inhibitor_Dose_DryPowder_Activity_Set8.; type: functional; settings: A-375

Sequence of Fructose-bisphosphate aldolase (P9WQA3 whole entry): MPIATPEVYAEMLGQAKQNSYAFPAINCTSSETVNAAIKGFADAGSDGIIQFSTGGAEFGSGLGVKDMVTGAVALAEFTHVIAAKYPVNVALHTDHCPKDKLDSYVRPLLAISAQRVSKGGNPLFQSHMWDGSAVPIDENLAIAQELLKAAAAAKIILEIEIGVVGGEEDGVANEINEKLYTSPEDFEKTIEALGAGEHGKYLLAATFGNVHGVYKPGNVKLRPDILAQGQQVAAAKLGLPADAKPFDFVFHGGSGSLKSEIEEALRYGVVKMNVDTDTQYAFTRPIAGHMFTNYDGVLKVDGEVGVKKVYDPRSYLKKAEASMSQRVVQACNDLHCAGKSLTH

SMILES: Cc1ccc(C)c(N(C(=O)c2snc(C(N)=O)c2N)C(C(=O)NCC2CCCO2)c2cccs2)c1 (configuration not stated)
- IC50 [1]: > 1.11 µM (active)

SMILES: NCCNc1c2ccccc2nc2ccccc12
- IC50 [2]: 500 nM (active)

SMILES: Cn1ncc2c(NNC(=O)c3ccc(Cl)cc3Cl)ncnc21
- IC50 [3]: > 50 µM (not active)
- IC50 [4]: > 50 µM (not active)

SMILES: CC(C)N1C[C@H](C)[C@@H](CN(C)Cc2ccc(Oc3ccccc3)cc2)Oc2c(cccc2-c2cn(-c3ccncc3)nn2)C1=O
- AC50 [5]: 20.4 nM (active)

SMILES: Oc1cc(O)cc(C=Cc2ccc(O)c(O)c2)c1
- Ki [6]: > 2.51 µM (inactive)
- Ki [7]: 2.51 µM (active)
- AC50 (Caspase-8): > 70 µM (inactive)
- AC50 (Caspase-6): 1.2 µM (active)
- AC50 (Caspase-7): > 70 µM (inactive)

SMILES: CCCCn1c(NC(=O)CC)c(C#N)c2nc3ccccc3nc21
- Ki (fMet-Leu-Phe receptor): 24.2 µM (inactive)
- IC50 (Estrogen receptor): 23.4 µM (active)
- IC50 [8]: 1.55 µM (active)

SMILES: Cc1cccc(-c2ccc([C@H]3[C@H](CO)N4CCCCN(C(=O)c5ccncc5)C[C@@H]34)cc2)c1
- AC50 [5]: 2460 nM (active)

SMILES: Oc1cccc(CCNc2ccnc3ccccc23)c1O
- IC50 [2]: 2700 nM (active)

SMILES: O=C1C=C(Nc2ccc3ccccc3c2)C(=O)c2ccccc21
- AC50 [9]: 1.65 µM (active)
- AC50 [10]: 49.4 µM (active)
